Earlier results on two compounds are cited in patent publication US8790676B2, “Microencapsulated pesticide” (priority 2005, dated 2014).

Like-named read-outs stand apart in the source and are kept apart here.

As to `CCN(Cc1ccc(Cl)nc1)/C(=C/[N+](=O)[O-])NC` [Nitempyram, (E)-N-(6-chloro-3-pyridylmethyl)-N-ethyl-N′-methyl-2-nitrovinylidenediamine], the water-solubility (pH 7) is greater than 590 mg/mL.

“(E)-1-(2-chloro-1,3-thiazol-5-yl)-3-methyl-2-nitroguanidine [Clothianidin]”: the water-solubility (at pH 4.0, 20° C.) was 0.304 mg/mL.
